Measurements: patent US20130156753A1 (UNIVERSITY OF ROCHESTER, priority 2010, published 2013)

What was measured:
HDAC5 nuclear export = experiment: PE-induced HDAC5 nuclear export in neonatal rat ventricular cardiomyocytes (NRVMs); type: cell-based
Protocol: A, B, Cos7 cells were co-transfected with expression vectors encoding GFP-tagged HDAC5 (GFP-HDAC5) and constitutively active protein kinases as indicated, and then exposed to phorbol-12-myristate-13-acetate (PMA, […]) for 3 hours. […] A-F, The cells were fixed and the subcellular localization of GFP-HDAC5 was visualized by fluorescence microscopy.
(§1) The cells were fixed and GFP-HDAC5 localization was analyzed by fluorescence microscopy. α-actinin was detected by immunofluorescence using an antibody against α-actinin and a fluorescein-conjugated secondary antibody. The nuclei were stained with DAPI.
as §1, with “DAPI. B, PKA expression in cell lysates were determined by Western blot using PKA antibody.” for “DAPI.”
The cells were fixed and endogenous HDAC5 localization was analyzed by fluorescence microscopy. HDAC5 and α-actinin was detected by immunocytochemistry with antibody against HDAC5 and α-actinin.
The cells were fixed and GFP-HDAC5 subcellular localization was analyzed by fluorescence microscopy and stained with an α-actinin antibody and DAPI.
Cos7 cells were grown in Dulbecco's Modified Eagle's Medium (DMEM) supplemented with fetal bovine serum (10%), 1-glutamine and penicillin/streptomycin. Primary cultures of neonatal rat cardiac ventricular myocytes (NRVMs) from 1- to 2-day-old Sprague-Dawley rats (Charles River Laboratories) were prepared. In brief, NRVMs were dispersed from the ventricles by digestion with collagenase type II (Worthington). Cells were cultured in Dulbecco's modified Eagle's medium (DMEM) supplemented with 1,000 mg/L D-glucose, L-glutamine, and 110 mg/L sodium pyruvate (GIBCO), fetal bovine serum (10%), and penicillin/streptomycin at 37° C. in a 5% CO2 humidified atmosphere for 2-3 days. For inducer or inhibitor studies, cells were pretreated with various inducers or inhibitors for 30 min in serum-free medium. Primary cultures of adult rat cardiomyocytes were prepared from 200-250g male Sprague-Dawley rats. Briefly, rats were anesthetized, hearts excised and placed in Krebs buffer and perfused and digested with endotoxin-free collagenase II (Worthington). This protocol typically yielded approximately 4×10^6 cells per heart, with ˜85% surviving, rod-shaped Ca2+-tolerant cells. Myocytes were allowed to attach to 20 μg/ml laminin coated plates in Modified Eagle Medium (MEM) containing 2.5% FBS, 25 mmol/L HEPES, 5 mmol/L taurine, 2 mmol/L carnitine, 2 mmol/L creatinine, 100 IU/ml penicillin, and 100 μg/ml streptomycin for 2 hrs before replacing with serum-free MEM containing 25 mmol/L HEPES, 5 mmol/L taurine, 2 mmol/L carnitine, 2 mmol/L creatinine, 100 IU/ml penicillin, and 100 μg/ml streptomycin.
Adenoviruses encoding Flag-tagged HDAC5 wild-type (WT), GFP-tagged HDAC5-WT, and YFP-tagged HDAC7-WT were generated as described previously (Ha C H, et al. (2008) Protein Kinase D-dependent Phosphorylation and Nuclear Export of Histone Deacetylase 5 Mediates Vascular Endothelial Growth Factor-induced Gene Expression and Angiogenesis. J Biol Chem 283(21):14590-14599; Ha C H et al. (2008) VEGF stimulates HDAC7 phosphorylation and cytoplasmic accumulation modulating matrix metalloproteinase expression and angiogenesis. Arterioscler Thromb Vasc Biol 28(10):1782-1788). Adenovirus expressing GFP-tagged HDAC5-S280A mutant, GFP-tagged HDAC5-S280D mutant and Flag-tagged HDAC5-S280A mutant were generated by using ViraPower Adenoviral Expression System (Invitrogen) according to the manufacturer's protocol. Adenovirus containing β-galactosidase (LacZ) or GFP was used as a control. […]

[1] = test system: MEF2 transcriptional activity; experiment: 3xMEF2-luciferase reporter assay in NRVMs; type: cell-based, rat; conditions: PE 24 hours
Protocol: The mRNA was extracted from the cell lysates and then RT-PCR with the primers for ANF, β-MHC, α-SMA, and GADPH (internal control) was performed. *, p<0.05 versus PE+Ad-GFP; #, p<0.05 versus PE+GFP-HDAC5-WT, n=4.
To assess MEF2 and CREB transcriptional activation, an adenovirus was used that encoded a 3×MEF2-dependent reporter gene in which three tandem repeats of MEF2 sites were located upstream of the thymidine kinase gene promoter and plasmid encoding CREB-dependent reporter gene. NRVMs or Cos7 cells cultured in 24-well were co-transfected with 3×MEF2 or CREB luciferase reporter gene and adenovirus encoding LacZ or GFP-HDAC5-WT, GFP-HDAC5-S280A mutant and GFP-HDAC5-S280D mutant. […] The luciferase activities in cell lysates were determined using the Dual-Luciferase Reporter Assay kit (Promega) and Wallac 1420 multi-label counter (PerkinElmer) as described previously (4, 5).

NRVMs = experiment: Cardiomyocyte hypertrophy (cell size, α-actinin immunostaining) in NRVMs; type: cell-based, rat
Source text: A-H, Cardiomyocyte size was detected by immunostaining with anti-α-actinin antibody. […] The cells were fixed and analyzed for GFP-HDAC5 localization, α-actinin staining and nuclear DAPI staining *, p<0.05 versus without PE; #, p<0.05 versus with PE alone. I, Schematic model for PKA-dependent regulation of HDAC5 subcellular localization and gene transcription.
Cardiomyocyte protein marker α-actinin was detected by immunofluorescence using antibody against α-actinin and fluorescein-conjugated secondary antibody.
After 24 hour culture, cells were maintained in serum-free DMEM medium for additional 24 hours, and then exposed to various inducers or inhibitors (for 30 minutes) prior to PE or PMA stimulation for indicated times. The cells were washed with PBS and fixed with 3.7% formaldehyde in PBS. Images were captured at a magnification of ×60, using a fluorescence microscope (Olympus BX51) equipped with a digital camera and Spot software system (RT Color Diagnostic Instruments). For analysis of the myocyte marker, sarcomeric α-actinin antibody and DAPI in neonatal cardiomyocyte, immunocytochemistry were performed according to a standard protocol. For subcellular localization of endogenous HDAC5 in cardiomyocyes, we fixed cells and used the detergent Saponin (Sigma, 84510) to make cells permeable, and then performed immunocytochemistry with anti-HDAC5 antibody (Santa Cruz, sc-11419). For subcellular localization of HDAC5, total around 200 cells were counted in each condition. For cardiomyocyte size, total myocyte surface areas were calculated using NIH Image J software, and expressed as the average of 100 randomly selected cells per condition.

[2] = NRVMs with GFP-HDAC5-WT, cAMP 30 min, PE 24 hours

CCCC(=O)Nc1ncnc2c1ncn2[C@@H]1O[C@@H]2COP(=O)(O)O[C@H]2[C@H]1OC(=O)CCC [cAMP, Dibutyryl-cAMP]
HDAC5 translocation from nucleus to cytoplasm after PE (HDAC5 nuclear export; [2]): prevented from translocating from the nucleus to the cytoplasm
PE-induced nuclear export of GFP-HDAC5 S280A (HDAC5 nuclear export; NRVMs, S280A mutant, cAMP 500 μM or forskolin 10 μM 30 min, PE 3 hours): resistant to PKA inhibition
PE-stimulated HDAC5 nuclear export (HDAC5 nuclear export; NRVMs, adenoviral GFP-HDAC5, 30 min pretreatment, PE 10 μM 3 hours): markedly inhibited PE-stimulated HDAC5 nuclear export
PE-induced endogenous HDAC5 nuclear export (HDAC5 nuclear export; NRVMs, endogenous HDAC5, cAMP 500 μM 30 min, PE 10 μM 3 hours): same inhibitory effect
decrease in MEF2 transcriptional activation with HDAC5-S280A ([1]; NRVMs co-infected with adenoviral GFP-HDAC5-S280A): abolished the decrease in MEF2 transcriptional activation by cAMP
PE-stimulated MEF2 transcriptional activity ([1]; NRVMs with GFP alone or GFP-HDAC5-WT, 30 min pretreatment): significantly inhibited PE-stimulated MEF2 transcriptional activity
size of cardiomyocytes after PE (NRVMs; [2]): decreased the size of cardiomyocytes
PE/Angiotensin II-induced cardiomyocyte hypertrophy (NRVMs; NRVMs, forskolin 10 μM, cAMP 500 μM, Rolipram 10 μM 30 min, PE or Angiotensin II 24 hours): inhibit PE/Angiotensin II-induced cardiomyocyte hypertrophy
